PubChem BioAssay (NCI)
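1) Cells in 96-well plates. 2) Compound, 48 h, 5 concentrations. 3) Linear interpolation between surrounding doses. 4) Unreached endpoint = highest concentration. Definition used: TGI = concentration required for complete inhibition of growth.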

Columns and labels:
Assay in all cases: growth of human tumour cells (NCI), 48 h
[1] = test system: UO-31 renal
[2] = test system: PC-3 prostate
[3] = test system: CCRF-CEM leukemia
[4] = test system: SF-268 CNS
[5] = test system: OVCAR-5 ovarian
[6] = test system: A549 NSCLC
[7] = test system: SK-MEL-2 melanoma
[8] = test system: 786-0 renal
[9] = test system: KM12 colon
[10] = test system: NCI-H522 lung
[11] = test system: K-562 leukemia
[12] = test system: HT29 colon
[13] = test system: DU-145 prostate
[14] = test system: ACHN renal
[15] = test system: SN12C renal
[16] = test system: TK-10 renal
[17] = test system: HOP-92 NSCLC
[18] = test system: HCT-15 colon
[19] = test system: HOP-62 NSCLC
[20] = test system: SNB-19 CNS
[21] = test system: SNB-75 CNS
[22] = test system: HL-60(TB) leukemia
[23] = test system: SW-620 colon
[24] = test system: OVCAR-3 ovarian
[25] = test system: M14 melanoma
[26] = test system: NCI-H23 lung
[27] = test system: MOLT-4 leukemia
[28] = test system: SF-295 CNS
[29] = test system: HS 578T breast
[30] = test system: NCI-H460 lung
[31] = test system: SK-OV-3 ovarian
[32] = test system: LOX IMVI melanoma
[33] = test system: NCI/ADR-RES ovarian
[34] = test system: CAKI-1 renal
[35] = test system: MDA-MB-231 breast
[36] = test system: UACC-257 melanoma
[37] = test system: SR leukemia
[38] = test system: HCT-116 colon
[39] = test system: T-47D breast
[40] = test system: MDA-MB-435
[41] = test system: OVCAR-8 ovarian
[42] = test system: OVCAR-4 ovarian
[43] = test system: U251 CNS
[44] = test system: SK-MEL-5 melanoma
[45] = test system: A498 renal
[46] = test system: RXF 393 renal
[47] = test system: SK-MEL-28 melanoma
[48] = test system: HCC-2998 colon
[49] = test system: MDA-N
[50] = test system: SF-539 CNS
[51] = test system: NCI-H226 lung
[52] = test system: MCF7 breast
[53] = test system: EKVX NSCLC
[54] = test system: UACC-62 melanoma
[55] = test system: BT-549 breast
[56] = test system: COLO 205 colon
[57] = test system: IGROV1 ovarian
[58] = test system: MALME-3M melanoma
[59] = test system: RPMI-8226 leukemia

SMILES: N#Cc1ncc(C(Cl)Cl)nc1Cl
- TGI [1]: 3.17 µM
- TGI [2]: 3.62 µM
- TGI [3]: > 6.15 µM
- TGI [4]: > 7.78 µM
- TGI [5]: 4.39 µM
- TGI [6]: > 10 µM
- TGI [7]: 4.33 µM
- TGI [8]: 3.16 µM
- TGI [9]: 2.7 µM
- TGI [10]: 1.74 µM
- TGI [11]: > 7.1 µM
- TGI [12]: 3.16 µM
- TGI [13]: > 10 µM
- TGI [14]: 4.32 µM
- TGI [15]: 3.79 µM
- TGI [16]: 3.82 µM
- TGI [17]: 0.536 µM
- TGI [18]: 3.87 µM
- TGI [19]: > 8.07 µM
- TGI [20]: > 10 µM
- TGI [21]: 6.64 µM
- TGI [22]: > 3.75 µM
- TGI [23]: 5.31 µM
- TGI [24]: 4.59 µM
- TGI [25]: 2.82 µM
- TGI [26]: 5.94 µM
- TGI [27]: > 6.63 µM
- TGI [28]: > 10 µM
- TGI [29]: > 10 µM
- TGI [30]: 3.74 µM
- TGI [31]: > 10 µM
- TGI [32]: 2.97 µM
- TGI [33]: 5.38 µM
- TGI [34]: 2.89 µM
- TGI [35]: 3.17 µM
- TGI [36]: 2.99 µM
- TGI [37]: > 5.84 µM
- TGI [38]: 3.04 µM
- TGI [39]: 3.78 µM
- TGI [40]: 3.9 µM
- TGI [41]: 5.16 µM
- TGI [42]: 3.31 µM
- TGI [43]: 3.78 µM
- TGI [44]: 3.35 µM
- TGI [45]: > 10 µM
- TGI [46]: 3.39 µM
- TGI [47]: 4.2 µM
- TGI [48]: 3.06 µM
- TGI [49]: 3.07 µM
- TGI [50]: 3.44 µM
- TGI [51]: > 10 µM
- TGI [52]: 3.86 µM
- TGI [53]: 3.27 µM
- TGI [54]: 5.9 µM
- TGI [55]: 4.8 µM
- TGI [56]: 3.3 µM
- TGI [57]: 5.3 µM
- TGI [58]: > 6.39 µM

SMILES: CC(=O)C(N1CCCCC1)C(O)(C(F)(F)F)C(F)(F)F (centres undefined)
- TGI [1]: > 100 µM
- TGI [2]: > 100 µM
- TGI [3]: > 100 µM
- TGI [5]: > 100 µM
- TGI [6]: > 100 µM
- TGI [8]: > 100 µM
- TGI [9]: > 100 µM
- TGI [10]: > 100 µM
- TGI [11]: > 100 µM
- TGI [12]: > 100 µM
- TGI [13]: > 100 µM
- TGI [14]: > 100 µM
- TGI [16]: > 100 µM
- TGI [17]: > 100 µM
- TGI [18]: > 100 µM
- TGI [20]: > 100 µM
- TGI [21]: > 100 µM
- TGI [22]: > 100 µM
- TGI [23]: > 100 µM
- TGI [24]: > 100 µM
- TGI [25]: > 100 µM
- TGI [26]: > 100 µM
- TGI [27]: > 100 µM
- TGI [28]: > 100 µM
- TGI [29]: > 100 µM
- TGI [30]: > 100 µM
- TGI [31]: > 100 µM
- TGI [32]: > 100 µM
- TGI [33]: > 100 µM
- TGI [34]: > 100 µM
- TGI [35]: > 100 µM
- TGI [36]: > 100 µM
- TGI [37]: > 100 µM
- TGI [38]: > 100 µM
- TGI [39]: > 100 µM
- TGI [40]: > 100 µM
- TGI [41]: > 100 µM
- TGI [59]: > 100 µM
- TGI [42]: > 100 µM
- TGI [43]: > 100 µM
- TGI [44]: > 100 µM
- TGI [45]: > 100 µM
- TGI [46]: > 100 µM
- TGI [47]: > 100 µM
- TGI [48]: > 100 µM
- TGI [49]: > 100 µM
- TGI [50]: > 100 µM
- TGI [51]: > 100 µM
- TGI [52]: > 100 µM
- TGI [53]: > 100 µM
- TGI [54]: > 100 µM
- TGI [55]: > 100 µM
- TGI [56]: > 100 µM
- TGI [57]: > 100 µM
- TGI [58]: > 100 µM

SMILES: COc1ccccc1N1CCN(CCCCNC(=O)c2ccc([N+](=O)[O-])o2)CC1
- TGI [1]: 23.2 µM
- TGI [2]: 39.8 µM
- TGI [3]: 58.2 µM
- TGI [4]: 35.4 µM
- TGI [5]: 33.1 µM
- TGI [6]: 19.5 µM
- TGI [7]: 19.4 µM
- TGI [8]: 21.4 µM
- TGI [9]: 20.3 µM
- TGI [10]: 7.26 µM
- TGI [11]: > 60.5 µM
- TGI [12]: 9.92 µM
- TGI [13]: 16.4 µM
- TGI [14]: 25.2 µM
- TGI [15]: 17.4 µM
- TGI [16]: 18.3 µM
- TGI [17]: 40.4 µM
- TGI [18]: 17.5 µM
- TGI [19]: 16.5 µM
- TGI [20]: 25.5 µM
- TGI [22]: 26.1 µM
- TGI [23]: > 66 µM
- TGI [24]: 17.8 µM
- TGI [25]: 14.6 µM
- TGI [26]: 15.9 µM
- TGI [27]: > 62.5 µM
- TGI [28]: 25.7 µM
- TGI [29]: 41 µM
- TGI [30]: 12.5 µM
- TGI [31]: 56.7 µM
- TGI [32]: 16.3 µM
- TGI [33]: > 100 µM
- TGI [34]: 40.5 µM
- TGI [35]: 77.1 µM
- TGI [36]: 13.2 µM
- TGI [37]: > 58.3 µM
- TGI [38]: 24.6 µM
- TGI [39]: 40.3 µM
- TGI [40]: 12 µM
- TGI [41]: 45.6 µM
- TGI [59]: > 68.4 µM
- TGI [42]: 28.9 µM
- TGI [43]: 24.6 µM
- TGI [44]: 18.7 µM
- TGI [45]: 22.8 µM
- TGI [46]: 25.2 µM
- TGI [47]: > 100 µM
- TGI [48]: 5.71 µM
- TGI [49]: 13.6 µM
- TGI [50]: 19.5 µM
- TGI [51]: 29.4 µM
- TGI [52]: 22.2 µM
- TGI [53]: 34.2 µM
- TGI [54]: 18.4 µM
- TGI [55]: 14.7 µM
- TGI [56]: 6.79 µM
- TGI [57]: 28.9 µM
- TGI [58]: 7.94 µM

SMILES: N#CCc1c(F)c(F)c(F)c(F)c1F
- TGI [1]: > 100 µM
- TGI [2]: > 100 µM
- TGI [3]: > 100 µM
- TGI [4]: > 100 µM
- TGI [5]: > 100 µM
- TGI [6]: > 100 µM
- TGI [8]: > 100 µM
- TGI [9]: > 100 µM
- TGI [10]: > 100 µM
- TGI [11]: > 100 µM
- TGI [12]: > 100 µM
- TGI [13]: > 100 µM
- TGI [14]: > 100 µM
- TGI [15]: > 100 µM
- TGI [16]: > 100 µM
- TGI [18]: > 100 µM
- TGI [19]: > 100 µM
- TGI [20]: > 100 µM
- TGI [22]: > 100 µM
- TGI [23]: > 100 µM
- TGI [25]: > 100 µM
- TGI [26]: > 100 µM
- TGI [27]: > 100 µM
- TGI [28]: > 100 µM
- TGI [29]: > 100 µM
- TGI [31]: > 100 µM
- TGI [32]: > 100 µM
- TGI [33]: > 100 µM
- TGI [34]: > 100 µM
- TGI [35]: > 100 µM
- TGI [36]: > 100 µM
- TGI [37]: > 100 µM
- TGI [38]: > 100 µM
- TGI [39]: > 100 µM
- TGI [40]: > 100 µM
- TGI [41]: > 100 µM
- TGI [59]: > 100 µM
- TGI [43]: > 100 µM
- TGI [44]: > 100 µM
- TGI [45]: > 100 µM
- TGI [46]: > 100 µM
- TGI [47]: > 100 µM
- TGI [48]: > 100 µM
- TGI [49]: > 100 µM
- TGI [50]: > 100 µM
- TGI [51]: > 100 µM
- TGI [52]: > 100 µM
- TGI [53]: > 100 µM
- TGI [54]: > 100 µM
- TGI [55]: > 100 µM
- TGI [56]: > 100 µM
- TGI [57]: > 100 µM
- TGI [58]: > 100 µM
